The results in this text go back to patent US8791264B2 (Purdue Pharma L.P., priority 2006, dated 2014).

Test [1] deals with T1, N-type calcium channel (NTCC) (Homo sapiens, UniProt Q00975).
T1 construct: host or cells: IMR32 cells differentiated with dibutyryl cAMP and bromodeoxyuridine
Nature of the test: FLIPR calcium mobilization assay for N-type calcium channel. Type of test: cell-based. The settings on record: calcium mobilization in vitro assay; differentiated IMR32 cells. A digest of the protocol: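 Differentiated IMR32 cells (8 days, dibutyryl cAMP and BrdU) loaded with 3 μM Fluo-4 during 90 mM KCl pre-stimulation, with compound at about 846 pM to 17 μM plus 5 μM nitrendipine. After washes in compound, FLIPR read basal fluorescence 315 s, then 45 s after KCl addition (final 90 mM).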
For orientation: Calcium assays in cells follow changes in intracellular calcium, usually with a dye or a luminescent sensor.

The target of test [2] is T2, recombinant rat L-type calcium channel (LTCC) subunits (α1c, α2δ, and β1) (Rattus norvegicus, UniProt P22002).
T2 construct: expressed in transfected cells
Nature of the test: FLIPR calcium mobilization assay for L-type calcium channel. Type of test: cell-based. The settings on record: calcium mobilization in vitro assay; HEK293 cells expressing rat LTCC. The method in brief: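 HEK293 cells stably expressing rat LTCC (α1c, α2δ, β1), Fluo-4 loaded in pH 7.4 buffer with 5 mM CaCl2. Compound (about 846 pM to 17 μM final) applied 5 minutes before depolarization with 90 mM KCl final; FLIPR fluorescence recorded throughout.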

T1 sequence (Q00975 whole entry): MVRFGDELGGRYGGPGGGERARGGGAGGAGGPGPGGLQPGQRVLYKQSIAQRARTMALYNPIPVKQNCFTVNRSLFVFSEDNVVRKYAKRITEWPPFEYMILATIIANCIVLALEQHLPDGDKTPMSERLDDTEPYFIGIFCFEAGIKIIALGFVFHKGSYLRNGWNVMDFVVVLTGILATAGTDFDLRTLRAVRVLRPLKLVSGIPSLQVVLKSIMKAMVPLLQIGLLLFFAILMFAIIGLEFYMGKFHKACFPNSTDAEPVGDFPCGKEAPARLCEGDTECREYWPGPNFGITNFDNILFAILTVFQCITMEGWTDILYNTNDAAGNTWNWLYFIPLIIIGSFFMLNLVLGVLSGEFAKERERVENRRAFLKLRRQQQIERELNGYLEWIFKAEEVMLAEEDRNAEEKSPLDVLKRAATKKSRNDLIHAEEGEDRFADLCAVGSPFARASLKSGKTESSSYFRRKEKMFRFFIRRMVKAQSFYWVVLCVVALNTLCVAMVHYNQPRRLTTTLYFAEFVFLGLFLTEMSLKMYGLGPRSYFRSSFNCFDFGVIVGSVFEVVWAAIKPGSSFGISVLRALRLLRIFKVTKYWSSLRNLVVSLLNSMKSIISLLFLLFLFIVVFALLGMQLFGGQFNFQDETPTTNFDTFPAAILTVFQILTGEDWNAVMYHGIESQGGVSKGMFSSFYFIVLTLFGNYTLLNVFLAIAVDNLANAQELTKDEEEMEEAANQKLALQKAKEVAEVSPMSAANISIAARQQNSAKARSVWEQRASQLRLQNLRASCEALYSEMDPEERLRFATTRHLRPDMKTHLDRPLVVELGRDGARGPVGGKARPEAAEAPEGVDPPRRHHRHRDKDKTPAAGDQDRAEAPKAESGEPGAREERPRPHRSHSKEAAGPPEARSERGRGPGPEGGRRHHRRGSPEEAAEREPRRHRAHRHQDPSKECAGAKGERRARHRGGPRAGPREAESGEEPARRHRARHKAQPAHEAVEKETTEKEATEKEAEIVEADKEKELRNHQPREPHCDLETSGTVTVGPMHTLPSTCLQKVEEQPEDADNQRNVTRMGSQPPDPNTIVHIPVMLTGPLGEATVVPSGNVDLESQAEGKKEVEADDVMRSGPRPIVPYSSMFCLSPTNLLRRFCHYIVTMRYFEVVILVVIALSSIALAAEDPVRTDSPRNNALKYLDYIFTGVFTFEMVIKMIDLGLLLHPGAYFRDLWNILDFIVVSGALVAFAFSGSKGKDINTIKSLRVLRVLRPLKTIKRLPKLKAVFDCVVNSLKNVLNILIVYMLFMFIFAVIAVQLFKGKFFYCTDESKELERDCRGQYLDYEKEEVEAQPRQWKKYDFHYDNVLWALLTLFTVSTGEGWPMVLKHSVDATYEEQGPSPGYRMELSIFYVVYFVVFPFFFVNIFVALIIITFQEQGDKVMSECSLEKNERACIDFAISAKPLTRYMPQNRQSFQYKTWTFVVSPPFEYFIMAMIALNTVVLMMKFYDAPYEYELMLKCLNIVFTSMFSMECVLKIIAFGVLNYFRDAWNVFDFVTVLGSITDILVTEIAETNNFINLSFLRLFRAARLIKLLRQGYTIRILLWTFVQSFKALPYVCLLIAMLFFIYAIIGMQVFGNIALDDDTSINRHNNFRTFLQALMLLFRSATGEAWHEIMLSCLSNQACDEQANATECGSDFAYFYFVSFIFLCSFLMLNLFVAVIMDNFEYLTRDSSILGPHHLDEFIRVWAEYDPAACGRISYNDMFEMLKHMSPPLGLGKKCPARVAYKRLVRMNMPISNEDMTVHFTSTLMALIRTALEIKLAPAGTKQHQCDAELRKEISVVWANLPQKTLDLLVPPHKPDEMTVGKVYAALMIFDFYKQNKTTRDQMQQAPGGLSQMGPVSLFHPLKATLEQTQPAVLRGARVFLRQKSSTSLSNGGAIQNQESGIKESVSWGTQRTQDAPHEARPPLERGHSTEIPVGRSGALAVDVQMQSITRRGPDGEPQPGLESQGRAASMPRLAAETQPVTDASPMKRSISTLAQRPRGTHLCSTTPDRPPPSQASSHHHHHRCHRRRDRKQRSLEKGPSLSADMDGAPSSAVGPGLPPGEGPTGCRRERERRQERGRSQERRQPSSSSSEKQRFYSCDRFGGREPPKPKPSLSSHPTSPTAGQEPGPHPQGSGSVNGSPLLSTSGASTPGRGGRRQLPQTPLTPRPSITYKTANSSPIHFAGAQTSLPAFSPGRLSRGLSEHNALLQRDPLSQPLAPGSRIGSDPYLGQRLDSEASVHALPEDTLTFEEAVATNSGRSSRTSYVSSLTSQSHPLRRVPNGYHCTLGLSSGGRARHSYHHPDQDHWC
T1 sequence (P54289 25-956 partner limits assumed): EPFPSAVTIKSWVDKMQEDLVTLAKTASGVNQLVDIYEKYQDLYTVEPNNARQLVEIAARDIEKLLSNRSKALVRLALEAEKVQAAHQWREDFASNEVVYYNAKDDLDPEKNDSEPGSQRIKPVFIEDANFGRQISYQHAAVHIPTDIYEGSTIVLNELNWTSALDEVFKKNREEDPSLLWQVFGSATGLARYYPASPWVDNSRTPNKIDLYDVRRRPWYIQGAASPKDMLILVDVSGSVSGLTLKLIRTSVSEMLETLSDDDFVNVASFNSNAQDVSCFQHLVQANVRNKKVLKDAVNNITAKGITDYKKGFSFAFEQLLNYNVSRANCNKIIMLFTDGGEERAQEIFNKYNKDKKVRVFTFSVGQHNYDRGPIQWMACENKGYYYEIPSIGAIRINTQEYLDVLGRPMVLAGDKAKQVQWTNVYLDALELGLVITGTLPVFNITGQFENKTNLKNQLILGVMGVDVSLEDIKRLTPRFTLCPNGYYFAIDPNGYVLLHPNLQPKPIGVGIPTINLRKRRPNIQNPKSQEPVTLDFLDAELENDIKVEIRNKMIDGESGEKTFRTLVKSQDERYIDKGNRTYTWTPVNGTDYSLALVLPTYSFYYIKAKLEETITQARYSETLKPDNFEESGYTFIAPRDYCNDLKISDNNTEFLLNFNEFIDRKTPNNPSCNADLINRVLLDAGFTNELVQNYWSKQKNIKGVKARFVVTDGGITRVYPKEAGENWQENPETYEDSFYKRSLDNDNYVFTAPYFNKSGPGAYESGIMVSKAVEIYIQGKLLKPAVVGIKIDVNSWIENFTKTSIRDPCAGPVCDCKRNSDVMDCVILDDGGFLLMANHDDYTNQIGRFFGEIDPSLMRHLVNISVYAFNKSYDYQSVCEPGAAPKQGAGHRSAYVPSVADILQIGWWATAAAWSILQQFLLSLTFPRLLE
T1 sequence (P54289 957-1103 partner limits assumed): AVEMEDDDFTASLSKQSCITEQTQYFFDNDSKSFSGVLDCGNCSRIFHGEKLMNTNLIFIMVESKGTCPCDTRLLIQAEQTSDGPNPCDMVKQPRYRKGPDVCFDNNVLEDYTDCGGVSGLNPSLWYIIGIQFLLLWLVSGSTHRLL
T1 sequence (P54284 whole entry partner): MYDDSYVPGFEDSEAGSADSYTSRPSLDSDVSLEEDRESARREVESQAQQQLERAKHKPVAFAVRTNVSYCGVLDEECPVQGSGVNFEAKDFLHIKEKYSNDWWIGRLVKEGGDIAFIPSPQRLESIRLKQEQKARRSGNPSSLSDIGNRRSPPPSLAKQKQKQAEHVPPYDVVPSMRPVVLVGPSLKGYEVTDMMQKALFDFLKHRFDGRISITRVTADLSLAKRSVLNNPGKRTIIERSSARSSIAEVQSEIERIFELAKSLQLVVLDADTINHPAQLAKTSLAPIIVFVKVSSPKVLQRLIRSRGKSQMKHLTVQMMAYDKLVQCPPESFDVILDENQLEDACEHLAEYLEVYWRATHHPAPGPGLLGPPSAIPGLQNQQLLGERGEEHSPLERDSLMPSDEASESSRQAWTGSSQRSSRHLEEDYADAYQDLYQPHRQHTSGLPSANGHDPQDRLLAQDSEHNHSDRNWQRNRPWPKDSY

For orientation: IC50 means the point on the concentration scale where inhibition reaches its midpoint. For the molecule `Cc1ccccc1NCCC(=O)N1CCC(N(C(C)C)S(=O)(=O)c2cccc(C(F)(F)F)c2)CC1` [N-isopropyl-N-[1-(3-o-tolylamino-propionyl)-piperidin-4-yl]-3-trifluoromethyl-benzenesulfonamide], the IC50 came out at 430 nM in test [1] and 5280 nM in test [2].
The corresponding values for `COc1ccccc1NCCC(=O)N1CCC(N(C(C)C)S(=O)(=O)c2cccc(C(F)(F)F)c2)CC1` [N-isopropyl-N-{1-[3-(2-methoxy-phenylamino)-propionyl]-piperidin-4-yl}-3-trifluoromethyl-benzenesulfonamide] are 370 nM and 3800 nM.
Regarding `CC(C)N(C1CCN(C(=O)CCNc2ccccc2OC(F)(F)F)CC1)S(=O)(=O)c1cccc(C(F)(F)F)c1` [N-isopropyl-N-{1-[3-(2-trifluoromethoxy-phenylamino)-propionyl]-piperidin-4-yl}-3-trifluoromethyl-benzenesulfonamide], the IC50 in test [1] was 330 nM; in test [2], above 20000 nM.
For `COc1cccc(NCCC(=O)N2CCC(N(C(C)C)S(=O)(=O)c3cccc(C(F)(F)F)c3)CC2)c1` [N-isopropyl-N-{1-[3-(3-methoxy-phenylamino)-propionyl]-piperidin-4-yl}-3-trifluoromethyl-benzenesulfonamide] the same measures were 420 nM and 10000 to 20000 nM.
`CC(C)N(C1CCN(C(=O)CCNc2cccc(OC(F)(F)F)c2)CC1)S(=O)(=O)c1cccc(C(F)(F)F)c1` [N-isopropyl-N-{1-[3-(3-trifluoromethoxy-phenylamino)-propionyl]-piperidin-4-yl}-3-trifluoromethyl-benzenesulfonamide]: the IC50 in test [1] is 770 nM; in test [2], above 20000 nM.
For `COc1ccc(CNCCC(=O)N2CCC(N(C(C)C)S(=O)(=O)c3cccc(C(F)(F)F)c3)CC2)cc1` [N-isopropyl-N-{1-[3-(4-methoxy-benzylamino)-propionyl]-piperidin-4-yl}-3-trifluoromethyl-benzenesulfonamide] the same measures were 320 nM and 4300 nM.
For `CC(C)N(C1CCN(C(=O)C(N)Cc2ccc(OCc3ccccc3)cc2)CC1)S(=O)(=O)c1cccc(C(F)(F)F)c1` (stereo not drawn) [N-{1-[2-amino-3-(4-benzyloxy-phenyl)-propionyl]-piperidin-4-yl}-N-isopropyl-3-trifluoromethyl-benzenesulfonamide] the same measures were 710 nM and 2380 nM.
`COc1cccc(NCCC(=O)N2CCC(N(C(C)C)S(=O)(=O)c3cccc(C(F)(F)F)c3)CC2)c1OC` [N-{1-[3-(2,3-dimethoxy-phenylamino)-propionyl]-piperidin-4-yl}-N-isopropyl-3-trifluoromethyl-benzenesulfonamide]: the figures for the IC50 in test [1] and in test [2] were 310 nM and 10000 to 20000 nM, respectively.
Turning to `CC(C)N(C1CCN(C(=O)CCNc2ccc(F)cc2F)CC1)S(=O)(=O)c1cccc(C(F)(F)F)c1` [N-{1-[3-(2,4-difluoro-phenylamino)-propionyl]-piperidin-4-yl}-N-isopropyl-3-trifluoromethyl-benzenesulfonamide], the values for the IC50 in test [1] and in test [2] were 830 nM and above 20000 nM, respectively.
Regarding `COc1ccc(OC)c(NCCC(=O)N2CCC(N(C(C)C)S(=O)(=O)c3cccc(C(F)(F)F)c3)CC2)c1` [N-{1-[3-(2,5-dimethoxy-phenylamino)-propionyl]-piperidin-4-yl}-N-isopropyl-3-trifluoromethyl-benzenesulfonamide], the IC50 in test [1] was 750 nM; in test [2] it was above 20000 nM.
For `Cc1cccc(C)c1NCCC(=O)N1CCC(N(C(C)C)S(=O)(=O)c2cccc(C(F)(F)F)c2)CC1` [N-{1-[3-(2,6-dimethyl-phenylamino)-propionyl]-piperidin-4-yl}-N-isopropyl-3-trifluoromethyl-benzenesulfonamide] the same measures were 460 nM and above 20000 nM.
For `CC(C)CC(CC(=O)N1CCC(N(C(C)C)S(=O)(=O)c2cccc(C(F)(F)F)c2)CC1)NCCOCc1ccccc1` (stereo not drawn) [N-{1-[3-(2-benzyloxy-ethylamino)-5-methyl-hexanoyl]-piperidin-4-yl}-N-isopropyl-3-trifluoromethyl-benzenesulfonamide] the same measures were 220 nM and 4480 nM.
For `CC(C)N(C1CCN(C(=O)CCNc2ccc(F)cc2Cl)CC1)S(=O)(=O)c1cccc(C(F)(F)F)c1` [N-{1-[3-(2-chloro-4-fluoro-phenylamino)-propionyl]-piperidin-4-yl}-N-isopropyl-3-trifluoromethyl-benzenesulfonamide] the same measures were 820 nM and above 20000 nM.
In the case of `CC(C)N(C1CCN(C(=O)CCNc2ccccc2F)CC1)S(=O)(=O)c1cccc(C(F)(F)F)c1` [N-{1-[3-(2-fluoro-phenylamino)-propionyl]-piperidin-4-yl}-N-isopropyl-3-trifluoromethyl-benzenesulfonamide], the IC50 in test [1] came to 550 nM; in test [2], 9650 nM.
For `CC(C)N(C1CCN(C(=O)CCNc2ccc(F)c(F)c2)CC1)S(=O)(=O)c1cccc(C(F)(F)F)c1` [N-{1-[3-(3,4-difluoro-phenylamino)-propionyl]-piperidin-4-yl}-N-isopropyl-3-trifluoromethyl-benzenesulfonamide] the same measures were 390 nM and above 20000 nM.
For `COc1cc(NCCC(=O)N2CCC(N(C(C)C)S(=O)(=O)c3cccc(C(F)(F)F)c3)CC2)cc(OC)c1` [N-{1-[3-(3,5-dimethoxy-phenylamino)-propionyl]-piperidin-4-yl}-N-isopropyl-3-trifluoromethyl-benzenesulfonamide] the same measures were 820 nM and above 20000 nM.
The corresponding values for `CC(C)N(C1CCN(C(=O)CCNc2cccc(Cl)c2)CC1)S(=O)(=O)c1cccc(C(F)(F)F)c1` [N-{1-[3-(3-chloro-phenylamino)-propionyl]-piperidin-4-yl}-N-isopropyl-3-trifluoromethyl-benzenesulfonamide] are 900 nM and above 20000 nM.
For the molecule `CC(C)N(C1CCN(C(=O)CCNc2ccc(Cl)cc2)CC1)S(=O)(=O)c1cccc(C(F)(F)F)c1` [N-{1-[3-(4-chloro-phenylamino)-propionyl]-piperidin-4-yl}-N-isopropyl-3-trifluoromethyl-benzenesulfonamide], the IC50 in test [1] was 930 nM; in test [2], above 20000 nM.
The corresponding values for `COc1cc(NCCC(=O)N2CCC(N(C(C)C)S(=O)(=O)c3cccc(C(F)(F)F)c3)CC2)ccc1F` [N-{1-[3-(4-fluoro-3-methoxy-phenylamino)-propionyl]-piperidin-4-yl}-N-isopropyl-3-trifluoromethyl-benzenesulfonamide] are 620 nM and above 20000 nM.
For `CC(C)N(C1CCN(C(=O)CCNc2ccc(F)cc2)CC1)S(=O)(=O)c1cccc(C(F)(F)F)c1` [N-{1-[3-(4-fluoro-phenylamino)-propionyl]-piperidin-4-yl}-N-isopropyl-3-trifluoromethyl-benzenesulfonamide] the same measures were 530 nM and 3220 nM.
The corresponding values for `CC(C)N(C1CCN(C(=O)CCN(C)Cc2ccccc2)CC1)S(=O)(=O)c1cccc(C(F)(F)F)c1` [N-{1-[3-(benzyl-methyl-amino)-propionyl]-piperidin-4-yl}-N-isopropyl-3-trifluoromethyl-benzenesulfonamide] are 420 nM and 7480 nM.
